“Also recorded” adds a separate entry of the source.
What was measured:
[1] = biological target: T1, p75^NTR-expressing 3T3 cells (Homo sapiens, UniProt P08138); assay: p75NTR antibody (Ab 9651) competition on 3T3 cells, western blot; type: binding; settings: 100 nM compound, 90 min, 4° C.
T1 construct: host or cells: NIH3T3 fibroblasts
T1 sequence (P08138 29-427): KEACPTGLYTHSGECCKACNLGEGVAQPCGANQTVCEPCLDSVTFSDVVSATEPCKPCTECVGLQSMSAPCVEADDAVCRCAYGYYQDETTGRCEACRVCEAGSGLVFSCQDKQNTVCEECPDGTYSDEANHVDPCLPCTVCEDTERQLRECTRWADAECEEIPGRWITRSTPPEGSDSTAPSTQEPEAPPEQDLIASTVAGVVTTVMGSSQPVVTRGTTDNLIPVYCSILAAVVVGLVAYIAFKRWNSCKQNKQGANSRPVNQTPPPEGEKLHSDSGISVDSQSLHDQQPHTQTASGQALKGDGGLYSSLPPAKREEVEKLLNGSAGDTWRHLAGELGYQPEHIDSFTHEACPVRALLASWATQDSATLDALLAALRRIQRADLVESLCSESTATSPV
Method: NIH3T3 fibroblasts expressing either null vector or p75^NTR (Huang, C. S. et al. (1999) J Biol Chem 274, 36707-36714) were obtained from Dr. William Mobley (Stanford University, Calif., United States of America). Cells were grown in monolayers, harvested in PBS with 2 mM EDTA, pelleted, and resuspended in ice-cold DMEM HEPES with 1 mg/ml BSA. 6-9×10^6 cells from one confluent 6-well plate were used for each experimental point.
For binding analysis, p75^NTR antibody (1:100) was allowed to bind in the presence or absence of 100 nM p75-binding compounds for 90 minutes at 4° C. with gentle rotation, followed by four washes in PBS. The final cell pellet was resuspended in lysis buffer.
Western blots were performed as described above. To detect the presence of p75^NTR antibody, blots were probed with horseradish peroxidase-linked goat anti-rabbit IgG obtained from Amersham/Pharmacia Biotech (Piscataway, N.J., United States of America). Signals were detected by the ECL chemiluminescence system obtained from Amersham Biosciences (Piscataway, […]., United States of America). To control for variation in protein loading, the blot was stripped and reprobed with β-actin monoclonal antibody obtained from Sigma (St. Louis, Mo., United States of America).

p75^NTR-Fc = biological target: T2, p75^NTR-Fc (Homo sapiens, UniProt P08138); assay: NGF/p75NTR-Fc binding by NGF ELISA, Gaddum/Schild fit
T2 construct: purchased R&D Systems
T2 sequence (P08138 with tags, fused parts or gaps limits assumed): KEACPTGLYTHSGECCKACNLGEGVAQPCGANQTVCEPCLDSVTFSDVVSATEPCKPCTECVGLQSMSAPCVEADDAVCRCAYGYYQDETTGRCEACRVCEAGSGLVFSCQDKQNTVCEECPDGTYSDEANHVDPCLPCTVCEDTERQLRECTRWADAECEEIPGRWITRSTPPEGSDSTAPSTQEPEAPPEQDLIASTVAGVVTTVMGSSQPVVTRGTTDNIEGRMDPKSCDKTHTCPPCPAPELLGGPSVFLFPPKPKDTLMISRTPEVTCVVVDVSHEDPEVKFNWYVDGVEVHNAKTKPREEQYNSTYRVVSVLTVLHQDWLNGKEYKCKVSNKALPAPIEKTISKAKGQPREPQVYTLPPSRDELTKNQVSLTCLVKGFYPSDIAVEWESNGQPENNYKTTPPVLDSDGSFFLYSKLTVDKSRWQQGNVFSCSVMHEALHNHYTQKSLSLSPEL
Method: Briefly, 96-well plates were incubated with 0.1 pmol (at 1 nM) of p75/Fc or TrkA/Fc recombinant protein obtained from R&D System (Minneapolis, Minn., United States of America) overnight at 4° C. followed by incubation with blocking buffer for 1 hour at room temperature. […] Plates were then washed five times with Tris-buffered saline (TBS) containing 0.05% Tween-20 and incubated with anti-NGF rabbit polyclonal antibody overnight at 4° C. Following five washes with TBS, wells were incubated for 2.5 hours at room temperature with anti-rabbit IgG HRP conjugate and washed five times. 3,3′,5,5′-tetramethyl-benzidine substrate was added and the optical density measured at 450 nm.
A regression analysis of NGF-p75^NTR binding in the presence of the p75-binding compounds was performed. The data was fit using the Nonlinear Regression module of Sigmaplot, to a modification of the Gaddum/Schild equation (adapted from Motulsky, H. J., and Christopoulos. A. (2003) A Practical Guide to Curve Fitting, 2nd edn. (San Diego, Calif., GraphPad Software, Inc.): […]

mature oligodendrocytes = assay: Oligodendrocyte cell death assay (MBP/TUNEL) with or without proNGF; type: cell-based, rat; settings: 24 h
Method: Cortical oligondendrocytes from rat pups were prepared as previously described (Yoon et al. (1998) J Neurosci 18, 3273-3281, Harrington, A. W., Kim, J. Y., Yoon, S. O. (2002) J Neurosci 22, 156-166). Cells were treated with recombinant, cleavage-resistant proNGF at 0.05 nM (2.8 ng/ml). Controls were treated with equivalent volumes of proNGF purification buffer containing 350 mM imidazole. 24 hours after treatment, the cells were fixed and processed for MBP and TUNEL staining as previously described (Beattie, M. S. et al. (2002) Neuron 36, 375-386). 200-250 cells were counted per well, for a minimum of 600 cells per experimental condition.

NFκB-p65 = NFκB-p65 phosphorylation western blot in hippocampal cultures; type: cell-based, mouse; settings: 20 nM
Method: For assays of Trk, AKT, NFκB, and ERK activation, hippocampal neurons derived from E16-17 mice were cultured in poly-L-lysine coated six-well plates (Corning, Inc., Corning, N.Y., United States of America) in DMEM containing 10% FBS, followed by incubation in serum-free DMEM for 2 hours before addition of neurotrophins or compounds. At the indicated time points, neurons were harvested in lysis buffer consisting of: 20 mM Tris, pH 8.0, 137 mM NaCl, 1% Igepal CA-630, 10% glycerol, 1 mM PMSF, 10 μg/ml aprotinin, 1 μg/ml leupeptin, 500 μM orthovanadate (Zhou, J., Valletta, J. S., Grimes, M. L., Mobley, W. C. (1995) J Neurochem 65, 1146-1156).
(§1) Lysates were centrifuged, the supernatant collected, and protein concentrations determined using the BCA Protein Assay Reagent obtained from Pierce (Rockford, Ill., United States of America). Western blots were performed as described previously (Yang, T. et al. (2003) J Neurosci 23, 3353-3363). Western blot signals were detected using the ECL Chemiluminescence System obtained by Amersham (Piscataway, N.J., United States of America) (Yang, T. et al. (2003) J Neurosci 23, 3353-3363).

TrkA = biological target: T3, TrkA (Homo sapiens, UniProt P04629); assay: Trk Y490 phosphorylation western blot in TrkA-expressing 3T3 cells; type: cell-based
T3 construct: expressed in transfected cells; host or cells: 3T3 cells (3T3-TrkA)
T3 sequence (P04629 33-796, species assumed): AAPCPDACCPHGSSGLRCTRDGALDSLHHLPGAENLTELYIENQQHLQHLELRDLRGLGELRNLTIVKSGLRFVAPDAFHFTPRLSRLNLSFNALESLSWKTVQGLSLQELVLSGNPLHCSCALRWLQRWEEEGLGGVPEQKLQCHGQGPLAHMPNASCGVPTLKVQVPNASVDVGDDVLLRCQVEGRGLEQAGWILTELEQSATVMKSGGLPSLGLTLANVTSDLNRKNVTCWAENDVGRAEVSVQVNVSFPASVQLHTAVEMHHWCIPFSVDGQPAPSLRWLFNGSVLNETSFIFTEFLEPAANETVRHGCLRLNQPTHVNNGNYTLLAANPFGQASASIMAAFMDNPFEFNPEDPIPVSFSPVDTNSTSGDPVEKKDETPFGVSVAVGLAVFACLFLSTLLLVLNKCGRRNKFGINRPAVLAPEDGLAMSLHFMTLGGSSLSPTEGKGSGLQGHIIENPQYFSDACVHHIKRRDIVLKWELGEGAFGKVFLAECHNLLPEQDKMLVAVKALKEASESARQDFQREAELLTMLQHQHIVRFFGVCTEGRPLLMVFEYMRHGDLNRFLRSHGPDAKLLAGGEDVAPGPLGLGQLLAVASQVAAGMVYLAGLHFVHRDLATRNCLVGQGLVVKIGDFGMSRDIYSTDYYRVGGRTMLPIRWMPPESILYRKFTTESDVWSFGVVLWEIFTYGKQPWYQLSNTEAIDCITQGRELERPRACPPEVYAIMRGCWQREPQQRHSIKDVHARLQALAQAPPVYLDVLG
Method: as §1

CCC(C)C(N)C(=O)NCCN1CCOCC1 (stereo not drawn) [Compound 4]
displacement of anti-p75NTR Ab 9651 [1]: significantly displaced | A2 relative to EC50 of biologic effect (p75^NTR-Fc): nearly four orders of magnitude greater | compound concentration at which binding curve differs from 0 nM curve (P<0.0001) (p75^NTR-Fc; ANOVA with post-hoc Bonferroni/Dunn): ≥ 500 nM | Schild coefficient (p75^NTR-Fc; Gaddum-Schild fit): 0.58 +/−0.04 | shift of the NGF/p75NTR-Fc binding curve (p75^NTR-Fc; increasing compound concentrations): significantly to the right | inhibition of proNGF-induced oligodendrocyte death (mature oligodendrocytes; 2.8 ng/ml (0.05 nM) proNGF): significantly inhibited; also recorded: blocked cell death | promotion of oligodendrocyte cell death by compound alone (mature oligodendrocytes; absence of proNGF): did not promote cell death | increase in NFκB-p65 phosphorylation (NFκB-p65): approximately 1.5 fold | TrkA activation (Trk Y490 phosphorylation) (TrkA): no detectable activation
